Laboratory results taken from patent publication US20250313548A1 (Actio Biosciences, Inc., priority 2023, published 2025).

Target: human, KCNT1 (Homo sapiens (Human), UniProt Q5JUK3)
Test: FLIPR Tl/K Flux Assay
Format: cell-based
Details: HEK293 cells stably expressing human KCNT1; Tl+ flux stimulated with EC80 of agonist Loxapine
In short: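 HEK293 cells stably expressing human KCNT1 were loaded with FLIPR potassium dye in HEPES/HBSS pH 7.4 with 5 mM probenecid, 1 h at 25 °C, then given test compound for 30 min at 25 °C. Tl+ flux was triggered with chloride-free buffer containing Tl+ and EC80 loxapine and read 160 s. IC50 came from Hill fits of % inhibition.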

Chain of human, KCNT1 (Q5JUK3 whole entry): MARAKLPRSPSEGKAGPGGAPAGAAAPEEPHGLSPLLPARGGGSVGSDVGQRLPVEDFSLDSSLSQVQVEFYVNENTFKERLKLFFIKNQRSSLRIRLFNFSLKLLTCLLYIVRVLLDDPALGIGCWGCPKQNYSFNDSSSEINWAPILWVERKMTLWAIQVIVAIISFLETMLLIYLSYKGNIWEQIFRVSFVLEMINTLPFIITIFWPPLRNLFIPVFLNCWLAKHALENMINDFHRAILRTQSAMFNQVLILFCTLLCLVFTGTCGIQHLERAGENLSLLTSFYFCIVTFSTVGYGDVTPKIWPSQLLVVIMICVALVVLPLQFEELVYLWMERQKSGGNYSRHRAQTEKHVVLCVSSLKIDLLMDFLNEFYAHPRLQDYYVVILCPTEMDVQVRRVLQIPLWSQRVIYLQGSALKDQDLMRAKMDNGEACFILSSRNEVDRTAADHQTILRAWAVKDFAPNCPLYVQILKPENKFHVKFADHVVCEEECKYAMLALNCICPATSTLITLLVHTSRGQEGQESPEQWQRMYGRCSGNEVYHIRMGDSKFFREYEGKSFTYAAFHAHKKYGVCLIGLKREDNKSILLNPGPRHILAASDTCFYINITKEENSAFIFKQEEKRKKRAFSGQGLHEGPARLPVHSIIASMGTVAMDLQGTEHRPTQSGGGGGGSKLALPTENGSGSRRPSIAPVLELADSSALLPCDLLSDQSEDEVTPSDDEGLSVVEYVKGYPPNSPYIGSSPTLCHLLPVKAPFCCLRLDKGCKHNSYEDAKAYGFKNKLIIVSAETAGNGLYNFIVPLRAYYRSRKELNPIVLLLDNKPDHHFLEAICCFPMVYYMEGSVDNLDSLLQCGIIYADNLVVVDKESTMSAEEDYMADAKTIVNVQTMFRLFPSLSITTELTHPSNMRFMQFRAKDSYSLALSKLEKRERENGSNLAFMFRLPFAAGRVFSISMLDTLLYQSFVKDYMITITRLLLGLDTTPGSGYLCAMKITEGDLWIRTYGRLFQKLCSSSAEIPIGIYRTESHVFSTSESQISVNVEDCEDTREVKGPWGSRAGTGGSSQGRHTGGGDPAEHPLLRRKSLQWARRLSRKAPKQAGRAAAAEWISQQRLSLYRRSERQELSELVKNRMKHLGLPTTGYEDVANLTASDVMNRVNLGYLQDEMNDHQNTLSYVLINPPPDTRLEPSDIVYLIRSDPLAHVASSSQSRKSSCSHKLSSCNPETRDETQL

SMILES	IC50
O=C(N[C@H]1CCc2nn(-c3ccnc(C(F)(F)F)c3)cc21)c1cc(Cl)cc(Cl)c1 [Compound I-99a]	< 250 nM
O=C(N[C@@H]1CCc2nn(-c3ccnc(C(F)(F)F)c3)cc21)c1cc(Cl)cc(Cl)c1 [Compound I-99b]	500 to 1000 nM
O=C(N[C@H]1CCc2nn(-c3ccnc(C(F)(F)F)c3)cc21)c1cc(F)cc(F)c1 [Compound I-100a]	< 250 nM
O=C(N[C@@H]1CCc2nn(-c3ccnc(C(F)(F)F)c3)cc21)c1cc(F)cc(F)c1 [Compound I-100b]	> 1000 nM
CN(C(=O)N[C@H]1CCc2nn(-c3ccnc(C(F)(F)F)c3)cc21)c1ccccc1 [Compound I-102a]	< 250 nM
CC(C)(C)CC(=O)N[C@H]1CCc2nn(-c3ccnc(C(F)(F)F)c3)cc21 [Compound I-103a]	< 250 nM
CC(C)(C)CC(=O)N[C@@H]1CCc2nn(-c3ccnc(C(F)(F)F)c3)cc21 [Compound I-103b]	> 1000 nM
CC(C)(C)C(=O)N[C@H]1CCc2nn(-c3ccnc(C(F)(F)F)c3)cc21 [Compound I-104a]	500 to 1000 nM
CC(C)(C)C(=O)N[C@@H]1CCc2nn(-c3ccnc(C(F)(F)F)c3)cc21 [Compound I-104b]	> 1000 nM
CC(C)(C)OC(=O)N[C@H]1CCc2nn(-c3ccnc(C(F)(F)F)c3)cc21 [Compound I-105a]	< 250 nM
CC(C)(C)OC(=O)N[C@@H]1CCc2nn(-c3ccnc(C(F)(F)F)c3)cc21 [Compound I-105b]	> 1000 nM
O=C(N[C@H]1CCc2nn(-c3ccnc(C(F)(F)F)c3)cc21)C1CCC(F)(F)CC1 [Compound I-106a]	< 250 nM
O=C(N[C@@H]1CCc2nn(-c3ccnc(C(F)(F)F)c3)cc21)C1CCC(F)(F)CC1 [Compound I-106b]	> 1000 nM
O=C(N[C@@H]1CCCCc2nn(-c3ccnc(C(F)(F)F)c3)cc21)c1cc(Cl)cc(C(F)(F)F)c1 [Compound I-109b]	> 1000 nM
O=C(N[C@H]1CCCCc2nn(-c3ccnc(C4CC4)c3)cc21)c1cc(Cl)cc(C(F)(F)F)c1 [Compound I-110a]	< 250 nM
O=C(N[C@H]1CCCn2nc(-c3ccnc(C4CC4)c3)cc21)c1cc(Cl)cc(C(F)(F)F)c1 [Compound I-111a]	< 250 nM
N#Cc1cccc(C(=O)N[C@H]2CCCc3nn(-c4ccnc(C(F)(F)F)c4)cc32)c1 [Compound I-112a, (S)-3-Cyano-N-(2-(2-(trifluoromethyl)pyridin-4-yl)-4,5,6,7-tetrahydro-2H-indazol-4-yl)benzamide]	< 250 nM
Cn1nc(C#N)cc1C(=O)N[C@H]1CCCc2nn(-c3ccnc(C(F)(F)F)c3)cc21 [Compound I-113a]	250 to 500 nM
Cn1nc(C(F)(F)F)cc1C(=O)N[C@H]1CCCc2cnc(-c3ccnc(C(F)(F)F)c3)cc21 [Compound I-116a]	< 250 nM
Cn1nc(C(F)(F)F)cc1C(=O)N[C@H]1CCCn2nc(-c3cc(C(F)(F)F)cs3)cc21 [Compound I-117a]	< 250 nM
Cn1nc(C(F)(F)F)cc1C(=O)N[C@H]1CCc2cnc(-c3ccnc(C(F)(F)F)c3)cc21 [Compound I-118a]	< 250 nM
O=C(N[C@H]1CCn2nc(-c3ccnc(C(F)(F)F)c3)cc21)c1cc(F)cc(F)c1 [Compound I-120a, (S)-3,5-difluoro-N-(2-(2-(trifluoromethyl)pyridin-4-yl)-5,6-dihydro-4H-pyrrolo[1,2-b]pyrazol-4-yl)benzamide]	< 250 nM

SMILES	IC50
Cn1nc(C(F)(F)F)cc1C(=O)N[C@H]1CCCc2oc(-c3ccnc(C4CC4)c3)nc21 [Compound I-121a, (S)—N-(2-(2-Cyclopropylpyridin-4-yl)-4,5,6,7-tetrahydrobenzo[d]oxazol-4-yl)-1-methyl-3-(trifluoromethyl)-1H-pyrazole-5-carboxamide]	< 250 nM
Cc1cnc(C(F)(F)F)cc1-c1cc2n(n1)CCC[C@@H]2NC(=O)c1cc(C(F)(F)F)nn1C [Compound I-122a, (S)-1-Methyl-N-(2-(5-methyl-2-(trifluoromethyl)pyridin-4-yl)-4,5,6,7-tetrahydropyrazolo[1,5-a]pyridin-4-yl)-3-(trifluoromethyl)-1H-pyrazole-5-carboxamide]	< 250 nM
Cn1nc(C(F)(F)F)cc1C(=O)N[C@H]1CCn2nc(-c3ccnc(C(F)(F)F)c3)cc21 [Compound I-123a, (S)-1-methyl-3-(trifluoromethyl)-N-(2-(2-(trifluoromethyl)pyridin-4-yl)-5,6-dihydro-4H-pyrrolo[1,2-b]pyrazol-4-yl)-1H-pyrazole-5-carboxamide]	< 250 nM
Cn1nc(C(F)(F)F)cc1C(=O)N[C@@H]1CCn2nc(-c3ccnc(C(F)(F)F)c3)cc21 [Compound I-123b, (R)-1-methyl-3-(trifluoromethyl)-N-(2-(2-(trifluoromethyl)pyridin-4-yl)-5,6-dihydro-4H-pyrrolo[1,2-b]pyrazol-4-yl)-1H-pyrazole-5-carboxamide]	250 to 500 nM
COc1cc(C(=O)N[C@H]2CCCn3nc(-c4ccnc(C(F)(F)F)c4)cc32)cc(OC)n1 [Compound I-124a, (S)-2,6-Dimethoxy-N-(2-(2-(trifluoromethyl)pyridin-4-yl)-4,5,6,7-tetrahydropyrazolo[1,5-a]pyridin-4-yl)isonicotinamide]	< 250 nM
Cc1nc(C(F)(F)F)oc1C(=O)N[C@H]1CCCn2nc(-c3ccnc(C(F)(F)F)c3)cc21 [Compound I-125a, (S)-4-Methyl-2-(trifluoromethyl)-N-(2-(2-(trifluoromethyl)pyridin-4-yl)-4,5,6,7-tetrahydropyrazolo[1,5-a]pyridin-4-yl)oxazole-5-carboxamide]	< 250 nM
COc1cc(-c2cc3n(n2)CCCC[C@@H]3NC(=O)c2cc(C(F)(F)F)nn2C)ccn1 [Compound I-126a, (S)—N-(2-(2-Methoxypyridin-4-yl)-5,6,7,8-tetrahydro-4H-pyrazolo[1,5-a]azepin-4-yl)-1-methyl-3-(trifluoromethyl)-1H-pyrazole-5-carboxamide]	< 250 nM
CCc1cc(F)cc(C(=O)N[C@H]2CCc3nn(-c4ccnc(C(F)(F)F)c4)cc32)c1 [Compound I-127a, (S)-3-Ethyl-5-fluoro-N-(2-(2-(trifluoromethyl)pyridin-4-yl)-2,4,5,6-tetrahydrocyclopenta[c]pyrazol-4-yl)benzamide]	< 250 nM
CCc1cc(F)cc(C(=O)N[C@@H]2CCc3nn(-c4ccnc(C(F)(F)F)c4)cc32)c1 [Compound I-127b]	< 250 nM
N#Cc1cccc(C(=O)N[C@H]2CCCn3nc(-c4ccnc(C(F)(F)F)c4)cc32)c1 [Compound I-128a, (S)-3-Cyano-N-(2-(2-(trifluoromethyl)pyridin-4-yl)-4,5,6,7-tetrahydropyrazolo[1,5-a]pyridin-4-yl)benzamide]	< 250 nM
O=C(N[C@H]1CCCc2oc(-c3ccnc(C4CC4)c3)nc21)c1cc(C(F)(F)F)n(C(F)F)n1 [Compound I-130a, (S)-N-(2-(2-Cyclopropylpyridin-4-yl)-4,5,6,7-tetrahydrobenzo[d]oxazol-4-yl)-1-(difluoromethyl)-5-(trifluoromethyl)-1H-pyrazole-3-carboxamide]	< 250 nM
O=C(N[C@H]1CCCc2oc(-c3ccnc(C4CC4)c3)nc21)c1cccc(F)c1 [Compound I-131a, (S)-N-(2-(2-Cyclopropylpyridin-4-yl)-4,5,6,7-tetrahydrobenzo[d]oxazol-4-yl)-3-fluorobenzamide]	< 250 nM
O=C(N[C@H]1CCCc2oc(-c3ccnc(C4CC4)c3)nc21)c1cncc(F)c1 [Compound I-132a, (S)-N-(2-(2-Cyclopropylpyridin-4-yl)-4,5,6,7-tetrahydrobenzo[d]oxazol-4-yl)-5-fluoronicotinamide]	< 250 nM
O=C(N[C@H]1CCc2nc(-c3ccnc(C(F)(F)F)c3)ccc21)c1cccc(C(F)(F)F)c1 [Compound I-133a, (S)-3-(Trifluoromethyl)-N-(2-(2-(trifluoromethyl)pyridin-4-yl)-6,7-dihydro-5H-cyclopenta[b]pyridin-5-yl)benzamide]	< 250 nM
Cn1nc(C(F)(F)F)cc1C(=O)N[C@H]1CCc2nc(-c3ccnc(C(F)(F)F)c3)ccc21 [Compound I-134a, (S)-1-Methyl-3-(trifluoromethyl)-N-(2-(2-(trifluoromethyl)pyridin-4-yl)-6,7-dihydro-5H-cyclopenta[b]pyridin-5-yl)-1H-pyrazole-5-carboxamide]	< 250 nM
COc1cc(-c2nc3c(o2)[C@@H](NC(=O)c2ccnc(OC(F)(F)F)c2)CCC3)ccn1 [Compound I-135a, (S)-N-(2-(2-Methoxypyridin-4-yl)-4,5,6,7-tetrahydrobenzo[d]oxazol-7-yl)-2-(trifluoromethoxy)isonicotinamide]	< 250 nM
O=C(N[C@H]1CCCc2oc(-c3ccnc(C4CC4)c3)nc21)c1cncc(C(F)(F)F)c1 [Compound I-137a, (S)-N-(2-(2-Cyclopropylpyridin-4-yl)-4,5,6,7-tetrahydrobenzo[d]oxazol-4-yl)-5-(trifluoromethyl)nicotinamide]	< 250 nM
O=C(N[C@H]1CCn2nc(-c3ccnc(C(F)(F)F)c3)cc21)C12CC(C(F)(F)F)(C1)C2 [Compound I-138a, (S)-3-(Trifluoromethyl)-N-(2-(2-(trifluoromethyl)pyridin-4-yl)-5,6-dihydro-4H-pyrrolo[1,2-b]pyrazol-4-yl)bicyclo[1.1.1]pentane-1-carboxamide]	< 250 nM
O=C(N[C@H]1CCn2nc(-c3cc(C(F)(F)F)ncc3F)cc21)c1cccc(C(F)(F)F)c1 [Compound I-139a, (S)-N-(2-(5-Fluoro-2-(trifluoromethyl)pyridin-4-yl)-5,6-dihydro-4H-pyrrolo[1,2-b]pyrazol-4-yl)-3-(trifluoromethyl)benzamide]	< 250 nM
Cc1cc(C#N)cc(C(=O)N[C@H]2CCn3nc(-c4cc(C(F)(F)F)ncc4F)cc32)c1 [Compound I-140a]	< 250 nM
Cc1cnc(C(F)(F)F)cc1-c1cc2n(n1)CC[C@@H]2NC(=O)c1nc(C(F)(F)F)nn1C [Compound I-141a, (S)-1-Methyl-N-(2-(5-methyl-2-(trifluoromethyl)pyridin-4-yl)-5,6-dihydro-4H-pyrrolo[1,2-b]pyrazol-4-yl)-3-(trifluoromethyl)-1H-1,2,4-triazole-5-carboxamide]	< 250 nM
